Values after ≈ are worked out from the molar mass of the structure shown. Read-outs that look alike come from different tables or passages of the source.
How the values were obtained:
[1] = molecular target: T1, full-length beta-Catenin (Uniprot ID P35222) (Homo sapiens, UniProt P35222); experiment: Fluorescence polarization IC50 (beta-catenin / 5FAM-TCF4 10-53 competition); format: binding
T1 construct: 10 nM full-length beta-Catenin (Uniprot ID P35222)
T1 sequence (P35222 1-781): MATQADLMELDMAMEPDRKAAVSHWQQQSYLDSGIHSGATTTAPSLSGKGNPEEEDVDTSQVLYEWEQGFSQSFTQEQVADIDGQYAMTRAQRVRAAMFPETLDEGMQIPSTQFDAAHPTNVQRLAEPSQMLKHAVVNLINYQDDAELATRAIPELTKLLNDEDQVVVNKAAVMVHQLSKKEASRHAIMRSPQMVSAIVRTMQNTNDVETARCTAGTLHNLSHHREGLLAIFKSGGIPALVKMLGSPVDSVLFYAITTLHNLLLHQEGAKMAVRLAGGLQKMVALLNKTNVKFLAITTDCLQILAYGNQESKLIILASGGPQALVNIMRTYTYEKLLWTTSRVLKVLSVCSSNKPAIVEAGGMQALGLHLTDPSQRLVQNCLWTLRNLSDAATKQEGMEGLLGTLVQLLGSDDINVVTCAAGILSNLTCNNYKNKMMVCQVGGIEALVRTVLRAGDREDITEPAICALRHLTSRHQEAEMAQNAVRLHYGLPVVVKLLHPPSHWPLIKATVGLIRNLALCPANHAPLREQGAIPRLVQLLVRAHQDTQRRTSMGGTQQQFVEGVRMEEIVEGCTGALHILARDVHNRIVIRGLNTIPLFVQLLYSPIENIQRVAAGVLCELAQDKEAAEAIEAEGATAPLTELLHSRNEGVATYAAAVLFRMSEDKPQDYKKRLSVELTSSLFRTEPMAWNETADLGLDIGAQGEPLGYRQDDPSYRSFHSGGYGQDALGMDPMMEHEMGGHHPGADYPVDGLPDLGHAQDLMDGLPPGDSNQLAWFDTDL

CHI Log D procedure = format: physicochemical; conditions: pH 7.4
Solubility in PBS = format: physicochemical
How it was run: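 HPLC quantitation of peptide remaining in the PBS supernatant after ultracentrifugation, referenced to a 50 μM solution in DMSO.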

[2] = fluorescence polarization, read-out: beta-Catenin FP IC50

SMILES	IC50 [1, 2] [nM]	IC50 ([1]; read-out: FP EC50) [nM]	CHI Log D (CHI Log D procedure)	Solubility (Solubility in PBS) [µM]
CC[C@H](C)[C@@H]1NC(=O)[C@H](CC(=O)O)NC(=O)[C@]2(CC=CCCCC3(CCCC=CCCCCCC[C@@](C)(C(=O)N[C@@H](Cc4ccccc4)C(=O)N[C@@H](Cc4csc5ccccc45)C(=O)N[C@@H](CO)C(N)=O)NC(=O)[C@H](CCC(N)=O)NC(=O)[C@H](Cc4ccccc4)NC(=O)[C@H](C)NC(=O)[C@H](C)NC(=O)[C@H](CCC(=O)O)NC(=O)[C@H](CC(=O)O)NC3=O)NC1=O)CCCN2C(C)=O (stereo partly drawn) [I-640, Ac-PL3-Asp-Ile-B5-Asp-Glu-Ala-Ala-Phe-Gln-S8-Phe-BztA-Ser-NH2]	87	87	2.516	50 (≈ 92.1 µg/mL)
CC[C@H](C)[C@@H]1NC(=O)[C@H](CC(=O)O)NC(=O)[C@]2(CC=CCCCC3(CCCC=CCCCCCC[C@@](C)(C(=O)N[C@@H](Cc4ccccc4)C(=O)N[C@@H](Cc4csc5ccccc45)C(=O)N[C@H](C(N)=O)[C@@H](C)O)NC(=O)[C@H](CCC(N)=O)NC(=O)[C@H](Cc4ccccc4)NC(=O)[C@H](C)NC(=O)[C@H](C)NC(=O)[C@H](CCC(=O)O)NC(=O)[C@H](CC(=O)O)NC3=O)NC1=O)CCCN2C(C)=O (stereo partly drawn) [I-642, Ac-PL3-Asp-Ile-B5-Asp-Glu-Ala-Ala-Phe-Gln-S8-Phe-BztA-Thr-NH2]	118	118	2.512	48 (≈ 89.1 µg/mL)
CC[C@H](C)[C@@H]1NC(=O)[C@H](CC(=O)O)NC(=O)[C@]2(CC=CCCCC3(CCCC=CCCCCCC[C@@](C)(C(=O)N[C@@H](Cc4ccccc4)C(=O)N[C@@H](Cc4csc5ccccc45)C(=O)N[C@@H](Cc4c[nH]c5ccccc45)C(N)=O)NC(=O)[C@H](CCC(N)=O)NC(=O)[C@H](Cc4ccccc4)NC(=O)[C@H](C)NC(=O)[C@H](C)NC(=O)[C@H](CCC(=O)O)NC(=O)[C@H](CC(=O)O)NC3=O)NC1=O)CCCN2C(C)=O (stereo partly drawn) [I-643, Ac-PL3-Asp-Ile-B5-Asp-Glu-Ala-Ala-Phe-Gln-S8-Phe-BztA-Trp-NH2]	958	958	2.833	28 (≈ 54.4 µg/mL)
CC[C@H](C)[C@@H]1NC(=O)[C@H](CC(=O)O)NC(=O)[C@]2(CC=CCCCC3(CCCC=CCCCCCC[C@@](C)(C(=O)N[C@@H](Cc4ccccc4)C(=O)N[C@@H](Cc4csc5ccccc45)C(=O)N[C@H](C(N)=O)C(C)C)NC(=O)[C@H](CCC(N)=O)NC(=O)[C@H](Cc4ccccc4)NC(=O)[C@H](C)NC(=O)[C@H](C)NC(=O)[C@H](CCC(=O)O)NC(=O)[C@H](CC(=O)O)NC3=O)NC1=O)CCCN2C(C)=O (stereo partly drawn) [I-645, Ac-PL3-Asp-Ile-B5-Asp-Glu-Ala-Ala-Phe-Gln-S8-Phe-BztA-Val-NH2]	395	395	2.677	40 (≈ 74.2 µg/mL)
CC[C@H](C)[C@@H]1NC(=O)[C@H](CC(=O)O)NC(=O)[C@]2(CC=CCCCC3(CCCC=CCCCCCC[C@@](C)(C(=O)N[C@@H](Cc4ccccc4)C(=O)N[C@@H](Cc4csc5ccccc45)C(=O)N[C@H](C(N)=O)C(C)C)NC(=O)[C@H](CCC(N)=O)NC(=O)[C@H](Cc4ccccc4)NC(=O)[C@H](C)NC(=O)[C@H](C)NC(=O)[C@H](CCC(=O)O)NC(=O)[C@H](CC(=O)O)NC3=O)NC1=O)CCCN2C(C)=O (stereo partly drawn) [I-646, Ac-PL3-Asp-Ile-B5-Asp-Glu-Ala-Ala-Phe-Gln-S8-Phe-BztA-Val-NH2]	461	461	2.694	41 (≈ 76 µg/mL)
CC[C@H](C)[C@@H]1NC(=O)[C@H](CC(=O)O)NC(=O)[C@]2(CC=CCCCC3(CCCC=CCCCCCC[C@@](C)(C(=O)N[C@@H](Cc4ccccc4)C(=O)N[C@@H](Cc4csc5ccccc45)C(=O)N[C@@H](CCC(N)=O)C(N)=O)NC(=O)[C@H](CCC(N)=O)NC(=O)[C@H](Cc4ccccc4)NC(=O)[C@H](C)NC(=O)[C@H](Cc4ccccc4)NC(=O)[C@H](CCC(=O)O)NC(=O)[C@H](CC(=O)O)NC3=O)NC1=O)CCCN2C(C)=O (stereo partly drawn) [I-649, Ac-PL3-Asp-Ile-B5-Asp-Glu-Phe-Ala-Phe-Gln-S8-Phe-BztA-Gln-NH2]	209	209	2.677	41 (≈ 80.3 µg/mL)
CC[C@H](C)[C@@H]1NC(=O)[C@H](CC(=O)O)NC(=O)[C@]2(CC=CCCCC3(CCCC=CCCCCCC[C@@](C)(C(=O)N[C@@H](Cc4ccccc4)C(=O)N[C@@H](Cc4csc5ccccc45)C(=O)N[C@@H](CCC(N)=O)C(N)=O)NC(=O)[C@H](CCC(N)=O)NC(=O)[C@H](Cc4ccccc4)NC(=O)[C@H](C)NC(=O)[C@H](Cc4ccccc4)NC(=O)[C@H](CCC(=O)O)NC(=O)[C@H](CC(=O)O)NC3=O)NC1=O)CCCN2C(C)=O (stereo partly drawn) [I-650, Ac-PL3-Asp-Ile-B5-Asp-Glu-Phe-Ala-Phe-Gln-S8-Phe-BztA-Gln-NH2]	137	137	2.718	45 (≈ 88.2 µg/mL)
CC[C@H](C)[C@@H]1NC(=O)[C@H](CC(=O)O)NC(=O)[C@]2(CC=CCCCC3(CCCC=CCCCCCC[C@@](C)(C(=O)N[C@@H](Cc4ccccc4)C(=O)N[C@@H](Cc4csc5ccccc45)C(=O)N[C@@H](CCC(N)=O)C(N)=O)NC(=O)[C@H](CCC(N)=O)NC(=O)[C@H](Cc4ccccc4)NC(=O)[C@H](C)NC(=O)[C@H](CO)NC(=O)[C@H](CCC(=O)O)NC(=O)[C@H](CC(=O)O)NC3=O)NC1=O)CCCN2C(C)=O (stereo partly drawn) [I-652, Ac-PL3-Asp-Ile-B5-Asp-Glu-Ser-Ala-Phe-Gln-S8-Phe-BztA-Gln-NH2]	72	72	2.233	48 (≈ 91.2 µg/mL)

Continued by falling IC50 [1, 2], values first:

IC50 [1, 2] [nM]	IC50 ([1]; read-out: FP EC50) [nM]	CHI Log D (CHI Log D procedure)	Solubility (Solubility in PBS) [µM]	SMILES
808	808	2.837	22 (≈ 42.7 µg/mL)	CC[C@H](C)[C@@H]1NC(=O)[C@H](CC(=O)O)NC(=O)[C@]2(CC=CCCCC3(CCCC=CCCCCCC[C@@](C)(C(=O)N[C@@H](Cc4ccccc4)C(=O)N[C@@H](Cc4csc5ccccc45)C(=O)N[C@@H](Cc4c[nH]c5ccccc45)C(N)=O)NC(=O)[C@H](CCC(N)=O)NC(=O)[C@H](Cc4ccccc4)NC(=O)[C@H](C)NC(=O)[C@H](C)NC(=O)[C@H](CCC(=O)O)NC(=O)[C@H](CC(=O)O)NC3=O)NC1=O)CCCN2C(C)=O (stereo partly drawn) [I-644, Ac-PL3-Asp-Ile-B5-Asp-Glu-Ala-Ala-Phe-Gln-S8-Phe-BztA-Trp-NH2]
445	445	2.677	50 (≈ 96.3 µg/mL)	CC[C@H](C)[C@@H]1NC(=O)[C@H](CC(=O)O)NC(=O)[C@]2(CC=CCCCC3(CCCC=CCCCCCC[C@@](C)(C(=O)N[C@@H](Cc4ccccc4)C(=O)N[C@@H](Cc4csc5ccccc45)C(=O)N[C@@H](CCC(N)=O)C(N)=O)NC(=O)[C@H](CCC(N)=O)NC(=O)[C@H](Cc4ccccc4)NC(=O)[C@H](C)NC(=O)[C@H](CC(C)C)NC(=O)[C@H](CCC(=O)O)NC(=O)[C@H](CC(=O)O)NC3=O)NC1=O)CCCN2C(C)=O (stereo partly drawn) [I-647, Ac-PL3-Asp-Ile-B5-Asp-Glu-Leu-Ala-Phe-Gln-S8-Phe-BztA-Gln-NH2]
233	233	2.721	46 (≈ 88.6 µg/mL)	CC[C@H](C)[C@@H]1NC(=O)[C@H](CC(=O)O)NC(=O)[C@]2(CC=CCCCC3(CCCC=CCCCCCC[C@@](C)(C(=O)N[C@@H](Cc4ccccc4)C(=O)N[C@@H](Cc4csc5ccccc45)C(=O)N[C@@H](CCC(N)=O)C(N)=O)NC(=O)[C@H](CCC(N)=O)NC(=O)[C@H](Cc4ccccc4)NC(=O)[C@H](C)NC(=O)[C@H](CC(C)C)NC(=O)[C@H](CCC(=O)O)NC(=O)[C@H](CC(=O)O)NC3=O)NC1=O)CCCN2C(C)=O (stereo partly drawn) [I-648, Ac-PL3-Asp-Ile-B5-Asp-Glu-Leu-Ala-Phe-Gln-S8-Phe-BztA-Gln-NH2]
186	186	2.167	48 (≈ 91.2 µg/mL)	CC[C@H](C)[C@@H]1NC(=O)[C@H](CC(=O)O)NC(=O)[C@]2(CC=CCCCC3(CCCC=CCCCCCC[C@@](C)(C(=O)N[C@@H](Cc4ccccc4)C(=O)N[C@@H](Cc4csc5ccccc45)C(=O)N[C@@H](CCC(N)=O)C(N)=O)NC(=O)[C@H](CCC(N)=O)NC(=O)[C@H](Cc4ccccc4)NC(=O)[C@H](C)NC(=O)[C@H](CO)NC(=O)[C@H](CCC(=O)O)NC(=O)[C@H](CC(=O)O)NC3=O)NC1=O)CCCN2C(C)=O (stereo partly drawn) [I-651, Ac-PL3-Asp-Ile-B5-Asp-Glu-Ser-Ala-Phe-Gln-S8-Phe-BztA-Gln-NH2]
122	122	2.497	43 (≈ 79.8 µg/mL)	CC[C@H](C)[C@@H]1NC(=O)[C@H](CC(=O)O)NC(=O)[C@]2(CC=CCCCC3(CCCC=CCCCCCC[C@@](C)(C(=O)N[C@@H](Cc4ccccc4)C(=O)N[C@@H](Cc4csc5ccccc45)C(=O)N[C@H](C(N)=O)[C@@H](C)O)NC(=O)[C@H](CCC(N)=O)NC(=O)[C@H](Cc4ccccc4)NC(=O)[C@H](C)NC(=O)[C@H](C)NC(=O)[C@H](CCC(=O)O)NC(=O)[C@H](CC(=O)O)NC3=O)NC1=O)CCCN2C(C)=O (stereo partly drawn) [I-641, Ac-PL3-Asp-Ile-B5-Asp-Glu-Ala-Ala-Phe-Gln-S8-Phe-BztA-Thr-NH2]

Reference: patent publication US20240116985A1, “STAPLED PEPTIDES AND METHODS THEREOF” (priority 2020, published 2024)
